One series concerns the target ERK1 (Homo sapiens, UniProt P27361). As to the kind of experiment: In vitro kinase assay ERK1. As to conditions: concentrations up to 50 μM. Type of series: biochemical. On the procedure:
(§1) We first wondered whether COB223 required to be internalized to exert its biological effect. For this, we synthesized a covalent complex between BSA and COB223 and purified it. […] In vitro kinase assays were performed with a panel of purified protein-kinases involved in mitogenic signaling, including VEGFR2, FGFR1, FGFR2, PDGFRß, Met, Raf, MEK1, ERK1, ERK2, PKCα, PKCβI, PKCβII, PKCζ as indicated in Table 2. […] We then analyzed the effect of COB223 on VEGF-induced phosphorylations of VEGFR2, MEK and ERK1/2 (Figure 9). […] (Figure 9A, 9B). […] It was also specific of the p42/p44 MAP kinase pathway as activation of p38 MAP kinase phosphorylation in HUVEC cells by VEGF or serum was unaffected by COB223 (data not shown). The activation of src phosphorylation by VEGF in HUVECs was also unaffected by COB223 (data not shown).

The target in the next series is PKCα (Homo sapiens, UniProt P17252). Description: In vitro kinase assay PKCα. It counts as biochemical. As to conditions: concentrations up to 50 μM. On the procedure:
as §1

A short description of series [1]: Tolerance in treated LLC/2 tumor-bearing mice. As to conditions: two week-long treatment with up to 16 mg/kg i.p. Type of series: in vivo, mouse. The protocol:
We chose this model because of its rapid growth in syngenic mice and its strong dependence on angiogenesis. LLC/2 cells (10^6 in 50 μL medium) were subcutaneously injected into the right flank of […] mice. Seven days after tumor inoculation, mice were given an intraperitoneal (i.p.) injection of either solvent (1.7% DMSO) or COB223 every other day. Tumor size was measured with calipers, and the volume was calculated according to the formula (L*w^2)/2 where L and […] stand for length and width respectively. All mice were killed 21 days after tumor grafting.

In a further series the test system is ERK1/2 phosphorylation. As to the kind of experiment: ERK1/2 phosphorylation in MCF-10A cells expressing oncogenic RasG12V. It counts as cell-based. As to conditions: 25 μM COB223. The protocol: (§2) Figure 11 Effect of COB223 on mitogenic or oncogenic activation of the Ras /MEK/ERK signaling pathway (A) Serum-starved HUVEC cells were incubated for 15 min in the presence of 10 ng/mL VEGF-A and in the absence or the presence of 25 μM COB223. The phosphorylations of PLCγ on tyrosine 783, of Raf on serine 338 or on serine 259 and of ERK1/2 were then analyzed by Western blot analysis of the cell lysates as described in Material and Methods. Western blots for total PLCγ, Raf and ERK1/2 were used as loading controls. (B) MCF10A cells overexpressing an oncogenic version of Ras (MCF10A-RasG12V) were treated for the indicated periods of time by 25 μM COB223. Total ERK1/2 and phospho-ERK1/2 were then visualized by Western blotting of the cell extracts. Non-treated regular MCF10A cells were analyzed as a control (first lane). (C) CCL-39 fibroblasts expressing a constitutively active Raf in an estrogen-responsive manner were stimulated for 3 h with estradiol and treated for 15 or 30 min with 25 μM COB223. Total ERK1/2 and phospho-ERK1/2 were then visualized by Western blotting of the cell extracts. Non-treated cells were analyzed as a control (left lanes).

A further series deals with FGFR1 (Homo sapiens, UniProt P11362). Description: In vitro kinase assay FGFR1. It counts as biochemical. The following applies: concentrations up to 50 μM. The protocol: as §1
In another series the target is ERK2 (Homo sapiens, UniProt P28482). Description: In vitro kinase assay ERK2. It counts as biochemical. The following applies: concentrations up to 50 μM. The protocol:
as §1

The test system of the next series is PLCγ phosphorylation. As to the kind of experiment: Western blot, PLCγ phosphorylation in HUVEC. Type of series: cell-based, human. As to conditions: 10 ng/mL VEGF-A 15 min, 25 μM COB223. On the procedure: as §2
(§3) Serum-starved HUVEC cells were incubated for 15 min in the presence of either 10 ng/mL VEGF-A or 20 ng/mL FGF-2 and in the absence or the presence of indicated concentration of COB223. COB223 was incubated 15 min prior to stimulation. […]
Background: A western blot detects proteins with antibodies after separation by electrophoresis.

The next series relates to HMVECd cells. Description: Scratch wound closure assay, primary HMVECd. It counts as cell-based. The following applies: Homo sapiens, Endothelial cell; primary dermal microvascular endothelial cells, 10% FCS. The protocol:
Figure 3 Endothelial cell-specific inhibition of wound closure by COB223 The dose-dependent effect of COB223 on cellular wound closure was measured as described in Material and Methods on either HMVECd or on 3T3 cells. The results are expressed as the percentage of wound closure (with closure observed in the presence of 10% FCS taken as 100%) : mean values +/− SD from three experiments.
Confluent cell monolayers were wounded with a plastic pipet tip, washed gently with phosphate buffer saline (PBS) and treated with complete media containing molecules, as indicated. Cells were placed at 37°C into the incubator and photographed at indicated times. Quantitation of closure of the monolayer was performed using the NIH Image J program (http://rsbweb.nih.gov/ij/). Results are expressed as percentage of wound closure at t = 24 h as compared to the initial wound at t = 0 h.

The next series concerns LLC/2 cells. As to the kind of experiment: Cell viability WST-1, LLC/2. It counts as cell-based. The following applies: confluent LLC/2, 24 h at 37°C. The protocol:
Once they had reached confluency, cells were kept for 24 hours in medium supplemented with 0.5% FCS (LLC/2 and 3T3 cells) or 2.5% FCS (HUVEC and HMVEC-d cells), in the presence of COB223 at different concentrations. WST-1 assay (Roche Diagnostic, Meylan, France) was then performed according to the manufacturer's instructions.

The next series concerns ERK phosphorylation. Description: ERK phosphorylation in CCL-39 fibroblasts with estrogen-responsive active Raf. Type of series: cell-based. The following applies: estradiol 3 h, 25 μM COB223 15 or 30 min. The protocol:
as §2

The next series relates to Raf phosphorylation. Description: Western blot, Raf phosphorylation in HUVEC. Type of series: cell-based, human. As to conditions: 10 ng/mL VEGF-A 15 min, 25 μM COB223. The protocol: as §2, §3

A word on the EC50: it is the midpoint of the concentration-response curve. A low value points to an effect from little substance.

Sequence of ERK1 (P27361 whole entry, species assumed): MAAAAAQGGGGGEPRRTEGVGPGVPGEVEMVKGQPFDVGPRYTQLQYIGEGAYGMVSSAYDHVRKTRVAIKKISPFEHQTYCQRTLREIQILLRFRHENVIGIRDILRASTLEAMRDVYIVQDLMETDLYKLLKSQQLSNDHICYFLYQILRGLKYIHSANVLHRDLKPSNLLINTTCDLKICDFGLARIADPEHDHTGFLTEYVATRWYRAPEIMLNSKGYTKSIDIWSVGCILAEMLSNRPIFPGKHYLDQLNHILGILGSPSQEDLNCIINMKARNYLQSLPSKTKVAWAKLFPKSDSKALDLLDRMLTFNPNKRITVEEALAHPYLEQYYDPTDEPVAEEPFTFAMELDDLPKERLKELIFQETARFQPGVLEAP
Sequence of ERK2 (P28482 whole entry, species assumed): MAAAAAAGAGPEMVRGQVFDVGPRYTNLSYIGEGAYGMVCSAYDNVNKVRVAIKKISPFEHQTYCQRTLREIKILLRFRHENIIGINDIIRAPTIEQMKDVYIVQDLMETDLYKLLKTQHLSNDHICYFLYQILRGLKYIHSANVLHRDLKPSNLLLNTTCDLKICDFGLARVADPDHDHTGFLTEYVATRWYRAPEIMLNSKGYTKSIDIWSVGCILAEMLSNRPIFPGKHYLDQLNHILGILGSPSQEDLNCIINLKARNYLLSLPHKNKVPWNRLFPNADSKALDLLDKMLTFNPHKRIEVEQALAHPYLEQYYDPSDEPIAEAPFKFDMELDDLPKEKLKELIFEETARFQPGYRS
Sequence of FGFR1 (P11362 22-822, species assumed): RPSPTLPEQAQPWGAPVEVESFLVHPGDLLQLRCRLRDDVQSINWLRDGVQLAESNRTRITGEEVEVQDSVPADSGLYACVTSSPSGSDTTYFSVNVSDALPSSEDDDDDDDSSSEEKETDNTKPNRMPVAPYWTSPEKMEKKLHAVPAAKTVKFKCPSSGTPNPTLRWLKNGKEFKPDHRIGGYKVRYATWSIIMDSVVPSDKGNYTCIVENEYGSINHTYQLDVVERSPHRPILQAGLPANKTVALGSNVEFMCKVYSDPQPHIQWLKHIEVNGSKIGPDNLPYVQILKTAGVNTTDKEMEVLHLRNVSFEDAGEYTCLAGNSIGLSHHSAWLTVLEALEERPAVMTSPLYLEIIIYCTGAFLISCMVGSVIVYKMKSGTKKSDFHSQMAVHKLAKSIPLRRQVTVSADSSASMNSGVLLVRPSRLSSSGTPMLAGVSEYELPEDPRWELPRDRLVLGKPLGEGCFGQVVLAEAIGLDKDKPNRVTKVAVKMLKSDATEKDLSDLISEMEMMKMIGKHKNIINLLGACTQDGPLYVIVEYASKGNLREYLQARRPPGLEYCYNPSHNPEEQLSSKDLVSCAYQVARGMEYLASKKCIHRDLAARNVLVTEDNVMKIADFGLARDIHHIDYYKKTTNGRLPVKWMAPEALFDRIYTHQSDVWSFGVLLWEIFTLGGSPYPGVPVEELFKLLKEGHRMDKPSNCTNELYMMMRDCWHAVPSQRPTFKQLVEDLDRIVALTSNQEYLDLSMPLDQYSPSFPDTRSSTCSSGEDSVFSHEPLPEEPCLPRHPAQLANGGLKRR

Regarding `CN(C)c1cccc2c(S(=O)(=O)NCCCN3CCN(CCCNC(=O)OC(C)(C)C)CC3)cccc12` [COB223, tert-Butyl 3-(4-(3-(5-(dimethylamino)naphthalene-1-sulfonamido)propyl)piperazin-1-yl) propylcarbamate], the “kinase inhibition” value on ERK1, on PKCα, at FGFR1 and on ERK2 was “None of them was inhibited” each time. The “tolerance, adverse effects” value in series [1] is on record as “no adverse effect was observed”. Further, the “constitutive phosphorylation of ERK1/2 induced by oncogenic RasG12V” value in the series on ERK1/2 phosphorylation is given as “did not modify”. The “VEGF-induced tyrosine phosphorylation of PLCγ on residue Y783” value with PLCγ phosphorylation was “unaffected”. A half-maximal effect in the series on HMVECd cells (EC50) was put at 25 µM. In addition, the cytotoxic concentrations with LLC/2 cells was above 50 µM. Further, the “ERK phosphorylation induced by estrogen” value in the series with ERK phosphorylation is recorded as “did not inhibit”. The “phosphorylation of Raf on residue S338” value in the series with Raf phosphorylation is on record as “inhibited”.

The values above are taken from PMC4467156, “A new chemical inhibitor of angiogenesis and tumorigenesis that targets the VEGF signaling pathway upstream of Ras” (Oncotarget, 2015).
